In patent publication US20080009418A1, “Selective Inhibitors” (Alchemia LTD., priority 2004, published 2008):

Legend:
[1] = target: T1, Human δ-opioid (DOP) (Homo sapiens, UniProt P41143); experiment: Radioligand binding, human δ-opioid (DOP) membranes, FlashPlate, [3H]-Bremazocine; conditions: compound at 10 μM, [3H]-Bremazocine
T1 construct: purchased Perkin Elmer Biosignal
Method in brief: (§1)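 Cloned human receptor membranes were coated onto FlashPlate wells and incubated with radioligand and compound (added from a 0.5 mM DMSO daughter plate) for 1 hour at room temperature in the dark. Scintillation counting gave percent inhibition, with DMSO defining total and reference ligand defining non-specific binding.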

[2] = target: T2, Human κ-Opioid (KOP) (Homo sapiens, UniProt P41145); experiment: Radioligand binding, human κ-opioid (KOP) membranes, filtration, [3H]-Diprenorphine; conditions: compound at 10 μM, [3H]-Diprenorphine
T2 construct: purchased Perkin Elmer Biosignal
T2 sequence (P41145 whole entry): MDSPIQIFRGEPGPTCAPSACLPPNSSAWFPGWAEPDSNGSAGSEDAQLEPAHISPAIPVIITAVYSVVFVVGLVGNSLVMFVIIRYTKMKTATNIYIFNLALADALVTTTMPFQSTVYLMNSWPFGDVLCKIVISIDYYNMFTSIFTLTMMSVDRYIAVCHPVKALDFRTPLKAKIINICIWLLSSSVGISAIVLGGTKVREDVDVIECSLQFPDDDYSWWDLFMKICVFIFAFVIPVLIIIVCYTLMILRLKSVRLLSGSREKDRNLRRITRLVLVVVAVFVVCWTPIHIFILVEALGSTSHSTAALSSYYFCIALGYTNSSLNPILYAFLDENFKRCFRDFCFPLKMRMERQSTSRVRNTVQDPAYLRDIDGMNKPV
Method in brief: (§2)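 Percent inhibition of radioligand binding measured on recombinant human membranes: NK1 with [125I]-Substance P, KOP with [3H]-Diprenorphine. Incubation 1 h at room temperature, then harvest onto 0.3% PEI-soaked filters, cold Tris-HCl pH 7.4 washes and scintillation counting; non-specific binding from reference ligand wells.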

[3] = target: T3, Human Melanocortin (MC3) (Homo sapiens, UniProt P41968); experiment: Radioligand binding, human melanocortin MC3 membranes, FlashPlate, [125I]-NDP-αMSH; conditions: compound at 10 μM, [125I]-NDP-αMSH
T3 construct: purchased Perkin Elmer Biosignal
T3 sequence (P41968 whole entry): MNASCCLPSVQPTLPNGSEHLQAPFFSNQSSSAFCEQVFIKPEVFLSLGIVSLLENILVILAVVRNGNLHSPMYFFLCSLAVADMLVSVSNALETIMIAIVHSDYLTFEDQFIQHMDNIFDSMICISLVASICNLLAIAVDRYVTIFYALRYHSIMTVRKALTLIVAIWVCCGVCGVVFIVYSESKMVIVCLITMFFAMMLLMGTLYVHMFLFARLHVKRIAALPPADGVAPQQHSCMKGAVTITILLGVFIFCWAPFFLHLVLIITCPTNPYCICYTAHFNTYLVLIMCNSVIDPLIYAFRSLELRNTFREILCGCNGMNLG
Method in brief: as §1

[4] = target: T4, Human Melanocortin (MC4) (Homo sapiens, UniProt P32245); experiment: Radioligand binding, human melanocortin MC4 membranes, FlashPlate, [125I]-NDP-αMSH; conditions: compound at 10 μM, [125I]-NDP-αMSH
T4 construct: purchased Perkin Elmer Biosignal
T4 sequence (P32245 whole entry): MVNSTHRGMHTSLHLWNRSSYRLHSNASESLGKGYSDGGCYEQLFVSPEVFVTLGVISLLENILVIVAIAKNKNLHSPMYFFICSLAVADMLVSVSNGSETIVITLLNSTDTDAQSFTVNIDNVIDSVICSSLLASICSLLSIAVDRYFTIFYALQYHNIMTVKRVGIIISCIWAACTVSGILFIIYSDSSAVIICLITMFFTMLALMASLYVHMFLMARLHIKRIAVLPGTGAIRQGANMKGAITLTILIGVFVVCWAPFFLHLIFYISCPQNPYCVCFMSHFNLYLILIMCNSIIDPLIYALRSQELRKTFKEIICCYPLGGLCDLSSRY
Method in brief: as §1

[5] = target: T5, Human melanocortin (MC5) (Homo sapiens, UniProt P33032); experiment: Radioligand binding, human melanocortin MC5 membranes, FlashPlate, [125I]-NDP-αMSH; conditions: compound at 10 μM, [125I]-NDP-αMSH
T5 construct: purchased Perkin Elmer Biosignal
T5 sequence (P33032 whole entry): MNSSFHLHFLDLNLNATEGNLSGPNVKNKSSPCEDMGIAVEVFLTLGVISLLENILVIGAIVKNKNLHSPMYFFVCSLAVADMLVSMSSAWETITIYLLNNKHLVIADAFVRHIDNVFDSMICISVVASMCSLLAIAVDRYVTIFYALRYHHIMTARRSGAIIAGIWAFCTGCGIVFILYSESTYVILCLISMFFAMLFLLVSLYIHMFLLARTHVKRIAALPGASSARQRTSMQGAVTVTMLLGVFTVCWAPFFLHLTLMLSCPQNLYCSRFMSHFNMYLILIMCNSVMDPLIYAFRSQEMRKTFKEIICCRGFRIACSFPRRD
Method in brief: as §1

[6] = target: T6, Human melanin-concentrating hormone (MCH1) (Homo sapiens, UniProt Q99705); experiment: Radioligand binding, human melanin-concentrating hormone MCH1 membranes, FlashPlate, [125I]-S36057; conditions: compound at 10 μM
T6 construct: purchased Perkin Elmer Biosignal
T6 sequence (Q99705 whole entry): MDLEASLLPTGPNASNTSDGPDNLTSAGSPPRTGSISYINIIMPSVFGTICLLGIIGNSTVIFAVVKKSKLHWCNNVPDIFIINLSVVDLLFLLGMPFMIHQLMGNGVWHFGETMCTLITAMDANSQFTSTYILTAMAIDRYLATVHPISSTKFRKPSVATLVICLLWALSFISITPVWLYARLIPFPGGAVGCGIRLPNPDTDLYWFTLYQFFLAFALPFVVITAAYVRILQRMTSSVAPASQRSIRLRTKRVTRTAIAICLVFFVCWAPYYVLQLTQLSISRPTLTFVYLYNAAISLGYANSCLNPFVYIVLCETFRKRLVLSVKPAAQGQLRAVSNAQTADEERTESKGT
Method in brief: as §1

[7] = target: T7, Human μ-opioid (MOP) (Homo sapiens, UniProt P35372); experiment: Radioligand binding, human μ-opioid (MOP) membranes, FlashPlate, [3H]-Naloxone; conditions: compound at 10 μM, [3H]-Naloxone
T7 construct: purchased Perkin Elmer Biosignal
T7 sequence (P35372 whole entry): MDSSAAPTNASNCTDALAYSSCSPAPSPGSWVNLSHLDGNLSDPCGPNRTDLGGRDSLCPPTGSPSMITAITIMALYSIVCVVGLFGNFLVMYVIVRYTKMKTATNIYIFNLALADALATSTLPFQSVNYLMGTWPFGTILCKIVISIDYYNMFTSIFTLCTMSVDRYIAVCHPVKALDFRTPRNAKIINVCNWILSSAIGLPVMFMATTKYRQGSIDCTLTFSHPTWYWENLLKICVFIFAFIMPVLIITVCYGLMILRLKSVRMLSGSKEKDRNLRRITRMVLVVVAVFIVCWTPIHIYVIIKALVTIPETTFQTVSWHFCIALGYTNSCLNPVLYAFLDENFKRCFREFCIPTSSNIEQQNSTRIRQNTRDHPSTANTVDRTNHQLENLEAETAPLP
Method in brief: as §1

[8] = target: T8, Human neurokinin (NK1) (Homo sapiens, UniProt P25103); experiment: Radioligand binding, human neurokinin NK1 membranes, filtration, [125I]-Substance P; conditions: compound at 10 μM, [125I]-Substance P
T8 construct: purchased Perkin Elmer Biosignal
T8 sequence (P25103 whole entry): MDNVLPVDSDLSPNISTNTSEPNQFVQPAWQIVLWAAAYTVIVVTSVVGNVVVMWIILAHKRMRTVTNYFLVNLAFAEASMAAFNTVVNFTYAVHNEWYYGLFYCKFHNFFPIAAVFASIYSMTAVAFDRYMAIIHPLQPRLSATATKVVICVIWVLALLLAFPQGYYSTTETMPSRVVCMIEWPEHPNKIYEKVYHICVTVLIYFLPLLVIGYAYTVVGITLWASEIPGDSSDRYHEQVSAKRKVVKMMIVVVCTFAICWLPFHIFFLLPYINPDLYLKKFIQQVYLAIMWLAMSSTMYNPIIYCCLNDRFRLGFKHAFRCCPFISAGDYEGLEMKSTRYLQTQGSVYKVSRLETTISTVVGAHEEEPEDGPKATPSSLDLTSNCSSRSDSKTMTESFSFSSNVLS
Method in brief: as §2

[9] = target: T9, Human neuropeptide Y (NPY-Y1) (Homo sapiens, UniProt P25929); experiment: Radioligand binding, human neuropeptide Y NPY-Y1 membranes, FlashPlate, [125I]-PYY; conditions: compound at 10 μM, [125I]-PYY
T9 construct: purchased Perkin Elmer Biosignal
T9 sequence (P25929 1-384): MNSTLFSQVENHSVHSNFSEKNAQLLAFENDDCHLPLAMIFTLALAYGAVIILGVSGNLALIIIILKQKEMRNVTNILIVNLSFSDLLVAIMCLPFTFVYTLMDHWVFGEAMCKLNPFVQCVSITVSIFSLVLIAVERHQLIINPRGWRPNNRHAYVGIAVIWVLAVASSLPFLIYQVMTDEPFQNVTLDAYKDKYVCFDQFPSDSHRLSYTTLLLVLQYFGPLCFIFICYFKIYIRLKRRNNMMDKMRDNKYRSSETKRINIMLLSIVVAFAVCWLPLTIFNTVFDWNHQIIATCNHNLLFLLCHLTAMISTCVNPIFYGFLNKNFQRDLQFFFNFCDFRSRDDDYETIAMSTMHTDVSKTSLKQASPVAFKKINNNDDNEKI
Method in brief: as §1

[10] = target: T10, Human opioid (ORL1) (Homo sapiens, UniProt P41146); experiment: Radioligand binding, human opioid ORL1 membranes, FlashPlate, [125I]-Nociceptin; conditions: compound at 10 μM, [125I]-Nociceptin
T10 construct: purchased Perkin Elmer Biosignal
T10 sequence (P41146 whole entry): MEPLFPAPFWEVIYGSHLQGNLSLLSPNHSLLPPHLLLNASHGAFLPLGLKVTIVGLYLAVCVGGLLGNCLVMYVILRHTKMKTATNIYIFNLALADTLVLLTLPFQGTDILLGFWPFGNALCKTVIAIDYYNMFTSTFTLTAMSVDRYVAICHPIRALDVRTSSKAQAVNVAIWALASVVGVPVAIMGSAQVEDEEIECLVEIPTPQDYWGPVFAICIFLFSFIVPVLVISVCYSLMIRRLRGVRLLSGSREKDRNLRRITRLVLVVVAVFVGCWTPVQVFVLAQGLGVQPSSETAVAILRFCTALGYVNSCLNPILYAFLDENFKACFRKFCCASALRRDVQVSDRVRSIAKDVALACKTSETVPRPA
Method in brief: as §1

[11] = target: T11, Mouse urotensin (mUR2) (Mus musculus, UniProt Q8VIH9); experiment: Radioligand binding, mouse urotensin mUR2 membranes, FlashPlate, [125I]-Urotensin II; conditions: compound at 10 μM, [125I]-Urotensin II
T11 construct: purchased Perkin Elmer Biosignal
T11 sequence (Q8VIH9 1-385): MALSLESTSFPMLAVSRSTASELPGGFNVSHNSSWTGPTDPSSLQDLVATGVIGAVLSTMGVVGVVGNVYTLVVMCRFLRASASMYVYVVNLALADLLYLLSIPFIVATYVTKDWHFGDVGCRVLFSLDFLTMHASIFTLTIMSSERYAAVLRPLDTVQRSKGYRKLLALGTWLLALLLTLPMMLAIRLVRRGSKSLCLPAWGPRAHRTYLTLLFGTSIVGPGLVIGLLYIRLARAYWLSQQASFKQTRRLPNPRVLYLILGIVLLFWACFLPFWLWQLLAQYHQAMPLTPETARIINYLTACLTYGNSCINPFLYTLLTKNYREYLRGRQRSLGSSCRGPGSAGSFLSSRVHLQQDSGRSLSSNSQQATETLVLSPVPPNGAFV
Method in brief: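 Cloned mouse urotensin (mUR2) receptor membranes from Perkin Elmer Biosignal were immobilized in FlashPlate microplates using a proprietary coating. Each well got 19.5 μl buffer, then 0.5 μl of DMSO, reference ligand, or compound. Adding 5 μl of [125I]-Urotensin II, diluted to 5× final concentration in binding buffer, started binding. Plates were sealed with TopSeal-A and incubated 1 hour at room temperature in the dark. Wells were counted for 30 seconds each on a TopCount after a 60-second delay, and percentage inhibition was calculated.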

T1 sequence (P41143 whole entry): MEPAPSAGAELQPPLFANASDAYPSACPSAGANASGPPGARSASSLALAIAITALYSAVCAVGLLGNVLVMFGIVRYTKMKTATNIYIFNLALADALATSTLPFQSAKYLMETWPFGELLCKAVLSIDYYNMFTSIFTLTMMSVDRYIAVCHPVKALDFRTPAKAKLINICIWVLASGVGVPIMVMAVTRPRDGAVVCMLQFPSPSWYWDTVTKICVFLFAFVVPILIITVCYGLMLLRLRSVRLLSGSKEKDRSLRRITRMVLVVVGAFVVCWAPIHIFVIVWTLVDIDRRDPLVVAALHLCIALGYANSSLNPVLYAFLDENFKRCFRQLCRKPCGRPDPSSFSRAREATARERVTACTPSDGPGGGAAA

| Compound | A1: inhibition of radioligand binding, human δ-opioid (DOP) [1] | A2: inhibition of radioligand binding, human κ-opioid (KOP) [2] | A3: inhibition of radioligand binding, human melanocortin (MC3) [3] | A4: inhibition of radioligand binding, human melanocortin (MC4) [4] | A5: inhibition of radioligand binding, human melanocortin (MC5) [5] | A6: inhibition of radioligand binding, human melanin-concentrating hormone (MCH1) ([6]; [125I]-S36057) | A7: inhibition of radioligand binding, human μ-opioid (MOP) [7] | A8: inhibition of radioligand binding, human neurokinin (NK1) [8] | A9: inhibition of radioligand binding, human neuropeptide Y (NPY-Y1) [9] | A10: inhibition of radioligand binding, human opioid (ORL1) [10] | A11: inhibition of radioligand binding, mouse urotensin (mUR2) [11] | further results |
| --- | --- | --- | --- | --- | --- | --- | --- | --- | --- | --- | --- | --- |
| NCCC(=O)NC1O[C@H](CO)[C@@H](O)[C@H](OCc2cccc3ccccc23)[C@H]1NC(=O)c1ccccc1 (stereo partly shown) [compound 358] | − (“−” indicates less than 50% inhibition at 10 μM) | − (“−” indicates less than 50% inhibition at 10 μM) | − (“−” indicates less than 50% inhibition at 10 μM) | − (“−” indicates less than 50% inhibition at 10 μM) | − (“−” indicates less than 50% inhibition at 10 μM) | − (“−” indicates less than 50% inhibition at 10 μM) | − (“−” indicates less than 50% inhibition at 10 μM) | − (“−” indicates less than 50% inhibition at 10 μM) | + (“+” indicates greater than 50% inhibition at 10 μM) | − (“−” indicates less than 50% inhibition at 10 μM) | − (“−” indicates less than 50% inhibition at 10 μM) | – |
| NCC1CCC(C(=O)NC2O[C@H](CO)[C@@H](O)[C@H](OCc3ccc(Cl)cc3)[C@H]2NC(=O)c2ccccc2)CC1 (stereo partly shown) [compound 361] | − (“−” indicates less than 50% inhibition at 10 μM) | − (“−” indicates less than 50% inhibition at 10 μM) | − (“−” indicates less than 50% inhibition at 10 μM) | + (“+” indicates greater than 50% inhibition at 10 μM) | − (“−” indicates less than 50% inhibition at 10 μM) | − (“−” indicates less than 50% inhibition at 10 μM) | − (“−” indicates less than 50% inhibition at 10 μM) | − (“−” indicates less than 50% inhibition at 10 μM) | − (“−” indicates less than 50% inhibition at 10 μM) | − (“−” indicates less than 50% inhibition at 10 μM) | − (“−” indicates less than 50% inhibition at 10 μM) | – |
| N=C(N)NCC(=O)N[C@H]1C(OCc2ccc(Cl)cc2)O[C@H](COCc2ccc(Cl)cc2)[C@@H](O)[C@@H]1OCc1ccc2ccccc2c1 (stereo partly shown) [compound 516] | − (“−” indicates less than 50% inhibition at 10 μM) | − (“−” indicates less than 50% inhibition at 10 μM) | + (“+” indicates greater than 50% inhibition at 10 μM) | + (“+” indicates greater than 50% inhibition at 10 μM) | + (“+” indicates greater than 50% inhibition at 10 μM) | + (“+” indicates greater than 50% inhibition at 10 μM) | − (“−” indicates less than 50% inhibition at 10 μM) | + (“+” indicates greater than 50% inhibition at 10 μM) | − (“−” indicates less than 50% inhibition at 10 μM) | – | − (“−” indicates less than 50% inhibition at 10 μM) | A10: inhibition of radioligand binding, human opioid (ORL1) ([10]; 10 µM): − (“−” indicates less than 50% inhibition at 10 μM) |
| CO[C@H]1[C@H](O)[C@@H](COCc2ccc(-c3ccccc3)cc2)OC(OCc2cccc(O)c2)[C@@H]1NC(=O)CNC(=N)N (stereo partly shown) [compound 162] | – | – | – | – | – | – | – | – | – | – | – | A1 radioligand binding, percentage inhibition [1]: − (“−” indicates less than 50% inhibition at 10 μM); A2 radioligand binding, percentage inhibition [2]: − (“−” indicates less than 50% inhibition at 10 μM); A3 radioligand binding, percentage inhibition [3]: − (“−” indicates less than 50% inhibition at 10 μM); A4 radioligand binding, percentage inhibition [4]: − (“−” indicates less than 50% inhibition at 10 μM); A5 radioligand binding, percentage inhibition [5]: − (“−” indicates less than 50% inhibition at 10 μM); A6 radioligand binding, percentage inhibition ([6]; [125I]-S36057): − (“−” indicates less than 50% inhibition at 10 μM); A7 radioligand binding, percentage inhibition [7]: − (“−” indicates less than 50% inhibition at 10 μM); A8 radioligand binding, percentage inhibition [8]: + (“+” indicates greater than 50% inhibition at 10 μM); A9 radioligand binding, percentage inhibition [9]: − (“−” indicates less than 50% inhibition at 10 μM); A10 radioligand binding, percentage inhibition [10]: − (“−” indicates less than 50% inhibition at 10 μM); A11 radioligand binding, percentage inhibition [11]: − (“−” indicates less than 50% inhibition at 10 μM) |
| COCC1OC(OCc2ccc(Cl)cc2)C(NC(=O)CN)C(OCc2ccc(-c3ccccc3)cc2)C1O (stereo not shown) [compound 205] | – | – | – | – | – | – | – | – | – | – | – | A1: inhibition of radioligand binding ([1]; FlashPlate): − (“−” indicates less than 50% inhibition at 10 μM); A2: inhibition of radioligand binding ([2]; filtration): − (“−” indicates less than 50% inhibition at 10 μM); A3: inhibition of radioligand binding ([3]; FlashPlate): − (“−” indicates less than 50% inhibition at 10 μM); A4: inhibition of radioligand binding ([4]; FlashPlate): + (“+” indicates greater than 50% inhibition at 10 μM); A5: inhibition of radioligand binding ([5]; FlashPlate): + (“+” indicates greater than 50% inhibition at 10 μM); A6: inhibition of radioligand binding ([6]; [125I]-S36057, FlashPlate): − (“−” indicates less than 50% inhibition at 10 μM); A7: inhibition of radioligand binding ([7]; FlashPlate): − (“−” indicates less than 50% inhibition at 10 μM); A8: inhibition of radioligand binding ([8]; filtration): + (“+” indicates greater than 50% inhibition at 10 μM); A9: inhibition of radioligand binding ([9]; FlashPlate): − (“−” indicates less than 50% inhibition at 10 μM); A10: inhibition of radioligand binding ([10]; FlashPlate): − (“−” indicates less than 50% inhibition at 10 μM); A11: inhibition of radioligand binding ([11]; FlashPlate): − (“−” indicates less than 50% inhibition at 10 μM) |
